PubChem BioAssay (NCI)
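A five-concentration, 48-hour dose response in 96-well plates underlies each endpoint, interpolated linearly between surrounding concentrations. GI50 = concentration required for 50% inhibition of growth. TGI is the concentration that stops growth completely.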

Key:
Test in all cases: growth of human tumour cells (NCI), 48 h
[1] = system: 786-0 renal
[2] = system: CAKI-1 renal
[3] = system: A498 renal
[4] = system: K-562 leukemia
[5] = system: KM12 colon
[6] = system: SN12C renal
[7] = system: HL-60(TB) leukemia
[8] = system: NCI-H226 lung
[9] = system: M14 melanoma
[10] = system: ACHN renal
[11] = system: SK-OV-3 ovarian
[12] = system: A549 NSCLC
[13] = system: CCRF-CEM leukemia
[14] = system: OVCAR-5 ovarian
[15] = system: MDA-MB-435
[16] = system: NCI/ADR-RES ovarian
[17] = system: SR leukemia
[18] = system: MOLT-4 leukemia
[19] = system: HCT-116 colon
[20] = system: HS 578T breast
[21] = system: BT-549 breast
[22] = system: OVCAR-4 ovarian
[23] = system: HCC-2998 colon
[24] = system: LOX IMVI melanoma
[25] = system: NCI-H23 lung
[26] = system: COLO 205 colon
[27] = system: MALME-3M melanoma
[28] = system: DU-145 prostate
[29] = system: UACC-62 melanoma
[30] = system: SW-620 colon
[31] = system: SK-MEL-5 melanoma
[32] = system: MDA-MB-231 breast
[33] = system: OVCAR-3 ovarian
[34] = system: PC-3 prostate
[35] = system: SF-268 CNS
[36] = system: SK-MEL-28 melanoma
[37] = system: HCT-15 colon
[38] = system: SF-295 CNS
[39] = system: NCI-H460 lung
[40] = system: HT29 colon
[41] = system: UACC-257 melanoma
[42] = system: SNB-75 CNS
[43] = system: RPMI-8226 leukemia
[44] = system: UO-31 renal
[45] = system: EKVX NSCLC
[46] = system: T-47D breast
[47] = system: TK-10 renal
[48] = system: SF-539 CNS

SMILES: COc1cc2nc(Cl)nc(Nc3cccc(C4=Nc5c(N)nc(N)nc5NC(c5ccc(F)cc5)C4)c3)c2cc1OC (stereo unspecified)
- GI50 [1]: 1.56 µM
- TGI [1]: 2.99 µM
- GI50 [2]: 1.61 µM
- TGI [2]: 3.27 µM
- GI50 [3]: 1.01 µM
- TGI [3]: 2.47 µM
- GI50 [4]: 1.96 µM
- TGI [4]: 4.68 µM
- GI50 [5]: 1.88 µM
- TGI [5]: 3.61 µM
- GI50 [6]: 1.72 µM
- TGI [6]: 3.48 µM
- GI50 [7]: 1.95 µM
- TGI [7]: 4.09 µM
- GI50 [8]: 3.22 µM
- TGI [8]: 16.6 µM
- GI50 [9]: 1.86 µM
- TGI [9]: 3.7 µM
- GI50 [10]: 1.74 µM
- TGI [10]: 3.22 µM
- GI50 [11]: 25.7 µM
- TGI [11]: 59.3 µM
- GI50 [12]: 2.64 µM
- TGI [12]: 7.82 µM
- GI50 [13]: 1.05 µM
- TGI [13]: 4.14 µM
- GI50 [14]: 1.79 µM
- TGI [14]: 3.55 µM
- GI50 [15]: 1.66 µM
- TGI [15]: 3.11 µM
- GI50 [16]: 6.07 µM
- TGI [16]: > 100 µM
- GI50 [17]: 1.96 µM
- TGI [17]: 4.8 µM
- GI50 [18]: 1.77 µM
- TGI [18]: 5.45 µM
- GI50 [19]: 1.76 µM
- TGI [19]: 3.34 µM
- GI50 [20]: 1.98 µM
- TGI [20]: 4.53 µM
- GI50 [21]: 2.29 µM
- TGI [21]: 4.36 µM
- GI50 [22]: 1.63 µM
- TGI [22]: 3.38 µM
- GI50 [23]: 1.92 µM
- TGI [23]: 3.48 µM
- GI50 [24]: 1.78 µM
- TGI [24]: 3.51 µM
- GI50 [25]: 2 µM
- TGI [25]: 4.73 µM
- GI50 [26]: 1.77 µM
- TGI [26]: 3.51 µM
- GI50 [27]: 2.01 µM
- TGI [27]: 3.76 µM
- GI50 [28]: 1.77 µM
- TGI [28]: 3.44 µM
- GI50 [29]: 1.76 µM
- TGI [29]: 3.31 µM
- GI50 [30]: 1.76 µM
- TGI [30]: 3.6 µM
- GI50 [31]: 1.65 µM
- TGI [31]: 3.02 µM
- GI50 [32]: 1.49 µM
- TGI [32]: 3.03 µM
- GI50 [33]: 1.85 µM
- TGI [33]: 3.55 µM
- GI50 [34]: 2.17 µM
- TGI [34]: 6.68 µM
- GI50 [35]: 1.68 µM
- TGI [35]: 3.68 µM
- GI50 [36]: 1.62 µM
- TGI [36]: 3.04 µM
- GI50 [37]: 1.96 µM
- TGI [37]: 4.27 µM
- GI50 [38]: 1.82 µM
- TGI [38]: 3.5 µM
- GI50 [39]: 1.91 µM
- TGI [39]: 3.82 µM
- GI50 [40]: 2.05 µM
- TGI [40]: 4.38 µM
- GI50 [41]: 1.96 µM
- TGI [41]: 3.94 µM
- GI50 [42]: 1.13 µM
- TGI [42]: 2.42 µM
- GI50 [43]: 1.77 µM
- TGI [43]: 4.42 µM
- GI50 [44]: 1.55 µM
- TGI [44]: 3.54 µM
- GI50 [45]: 1.5 µM
- TGI [45]: 3.99 µM
- GI50 [46]: 1.93 µM
- TGI [46]: 4.64 µM
- GI50 [47]: 1.95 µM
- TGI [47]: 3.86 µM
- GI50 [48]: 1.53 µM
- TGI [48]: 2.93 µM
